In data set [1] the test system is ENR+CD organoids (ISC to Paneth cell differentiation). Kind of data set: Secondary (validation) screen: LYZ.NS basal lysozyme secretion, 2.5-D 384-well ENR+CD organoids. The data set is classed as cell-based, mouse. The note with it: for Dose.FC.LYZ.NS: 6-day ENR+CD, vs ENR+CD+DMSO.
Data set [2] has as its system ENR+CD organoids. Nature of the data set: Primary screen: ATP (CellTiter-Glo 3D, CTG) cell number/viability, 2.5-D 384-well ENR+CD organoids.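 On all read-outs here: compounds given at plating and again on day 3 over a 6-day differentiation from ENR+CV stem-cell-enriched precursors, ATP measured on day 6, plate median as control.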 The note with it: for Dose.FC.CTG (log2 fold change): primary screen. In general terms: Cellular ATP, detected with luciferase, serves as a proxy for viable cell number.
Data set [3] has as its system lysozyme (LYZ) in intestinal organoids. Kind of data set: Western blotting of lysozyme in 3D-cultured intestinal organoids. The note with it: ENR+CV, ENR+CD or ENR, 6 days. The format is cell-based, mouse. From the text:
Western blotting. ISC-enriched organoids cultured in 3D Matrigel with ENRCV media were passaged to 24-well plate in 3D Matrigel with ENRCV. At day zero, media were replaced to ENR or ENRCD with or without indicated compounds, and media were replaced every other day. At day six, cells were harvested from Matrigel by mechanical disruption and suspended in basal media. Cell pellets were lysed with Pierce® IP lysis buffer (ThermoFisher, 87787) containing Halt™ Protease Inhibitor Cocktail, EDTA-Free (ThermoFisher, 87785) after 3-minute centrifuge at 300×g at 4° C. Cell extracts were resolved by NuPAGE® SDS-PAGE Gel system (ThermoFisher) and electroblotted onto polyvinylidene difluoride membranes using Criterion™ Blotter (Biorad). The membranes were blocked with 2% Blotting-Grade Blocker (Biorad, 1706404) in TBS-T (50 mM Tris-HCl, 150 mM NaCl, and 0.1% Tween 20, pH 8.0) and then probed with appropriate antibodies. Detection was performed using ECL Select™ Western Blotting Detection Reagent (Amersham, 45-000-999) and ImageQuant LAS4000 (GE Healthcare).
Western blotting. Organoid-containing gel was homogenized in basal medium and centrifuged at 300 rcf for 3 min. Organoid pellet was lysed with ice-cold Pierce IP Lysis Buffer (Thermo Fisher Scientific, #87787) containing Halt Protease Inhibitor Cocktail, EDTA-Free (Thermo Fisher Scientific, #87785) and incubated on ice for 20 min. The lysate was centrifuged at 17,000 rcf for 10 min, and the supernatant was combined with NuPAGE LDS Sample Buffer (Thermo Fisher Scientific, NP0007). Protein concentration was determined by Pierce 660 nm Protein Assay (Thermo Fisher Scientific, #22660) and normalized to the lowest concentration among each sample set. […] Chemiluminescent signals were detected by LAS4000 (GE Healthcare) using Amersham ECL Select Western Blotting Detection Reagent (GE Healthcare, #45-000-999), and total protein signals were obtained by Odyssey Imaging System (LI-COR Biosciences) using REVERT Total Protein Stain Kit (LI-COR Biosciences, #926-11010).
In general terms: A western blot detects proteins with antibodies after separation by electrophoresis.

For data set [4], the system named is intestinal organoids. Nature of the data set: Population RNA-sequencing of treated organoids. The format is cell-based, mouse. How it is done:
Population RNA-sequencing. Population RNA-seq was performed using a derivative of the Smart-Seq2 protocol for single cells. In brief, organoid media was aspirated and RLT+BME (Qiagen) was added to each well, and plate shaken for 30 minutes to fully lyse. Lysate was aliquoted into 4 identical fractions and stored at −80° C. until reverse transcription. RNA lysate was thawed and cleaned with a 2.2×SPRI ratio using Agencourt RNAClean XP beads (Beckman Coulter, A63987). RNA-seq was performed on a bulk population of sorted basal cells using Smart-Seq2 chemistry, starting with a 2.2×SPRI ratio cleanup. After oligo-dT priming, Maxima H Minus Reverse Transcriptase (ThermoFisher EP0753) was used to synthesize cDNA with an elongation step at 52° C. before PCR amplification (15 cycles for tissue, 18 cycles for sorted basal cells) using KAPA HiFi PCR Mastermix (Kapa Biosystems KK2602). Sequencing libraries were prepared using the Nextera XT DNA tagmentation kit (Illumina FC-131-1096) with 250 pg input for each sample. Libraries were pooled post-Nextera and cleaned using Agencourt AMPure SPRI beads with successive 0.7× and 0.8× ratio SPRIs and sequenced with an Illumina 75 Cycle NextSeq500/550v2 kit (Illumina FC-404-2005) with loading density at […], with paired end 35 cycle read structure. Samples were sequenced at an average read depth of 8.44 million reads per sample and a total of 96 samples.
Organoid samples were aligned to the Mm10 genome and transcriptome using STAR and RSEM. […] For module scoring with the in vivo Paneth and enteroendocrine cell-defining genes, Applicants used previously published gene sets and computed per sample module scores through the Seurat package.

The structures appear in SMILES notation.

From patent publication US20220323406A1, “METHODS AND COMPOSITIONS FOR DIFFERENTIATING STEM CELLS” (Massachusetts Institute of Technology, priority 2019, published 2022) come the findings set out here.

Regarding `O=C(/C=C\n1cnc(-c2cc(C(F)(F)F)cc(C(F)(F)F)c2)n1)NNc1cnccn1` [KPT-330], the Dose.FC.LYZ.NS in data set [1] (0.02 uM) was −0.005 log2 fold change; in data set [1] (0.04 uM), −0.040 log2 fold change; in data set [1] (0.08 uM), 0.142 log2 fold change; in data set [1] ([…]) it was 0.244 log2 fold change. Moreover, the “validated doses in secondary screen (SSMD above cutoff in both LYZ assays)” value in data set [1] (LYZ.NS and LYZ.S) is “multiple validated doses”. The “increase in basal LYZ secretion (LYZ.NS) relative to ENR+CD control” value in data set [1] (validated dose-treatments, mean fold change vs ENR+CD+DMSO) is listed as 50-75%. In addition, the “toxicity in primary screening” value in data set [2] (concentrations higher than 160 nM, 6 days) is recorded as “toxic”. For the same compound, the “Dose.FC.CTG (log2 fold change)” value is 0.210 in data set [2] (dose 0.08 uM), −0.657 in data set [2] (dose 0.40 uM), −0.894 in data set [2] (dose 2.00 uM) and −1.876 in data set [2] (dose 10.00 uM). Besides, the “LYZ abundance per-mass protein (Western blot)” value in data set [3] is given as “appreciably increase LYZ abundance”. The “number of differentially expressed genes among hit compounds” value in data set [4] (ENR and ENR+CD) is given as “most differentially expressed genes”. Besides, the “secretory cell gene set scores (Paneth, goblet, EEC) from bulk transcripts” value in data set [4] (ENR+CV, ENR+CD or ENR) is “increase secretory cells (Paneth, goblet, and EEC)”.
